In paper PMC9375929, “Functional and structural characteristics of HLA-B*13:01-mediated specific T cells reaction in dapsone-induced drug hypersensitivity” (Journal of Biomedical Science, 2022):

Target: T1, HLA-B*13:01 (with beta-2-microglobulin) (Homo sapiens, UniProt A0A583ZBB4)
T1 construct: for SPR incubated with beta-2-microglobulin (Chemicon) and amine-coupled; no peptide ligand mentioned for SPR; with Beta-2-microglobulin
Test: surface plasmon resonance (Biacore T200), protein immobilised by amine coupling
Format: binding

Kd: 68.5 µM
SMILES: Nc1ccc(S(=O)(=O)c2ccc(N)cc2)cc1 [DDS]
